{
  "source": "paper PMC4318582",
  "about": "“Chemotherapy of Second Stage Human African Trypanosomiasis: Comparison between the Parenteral Diamidine DB829 and Its Oral Prodrug DB868 in Vervet Monkeys” (PLoS Neglected Tropical Diseases, 2015)",
  "key": {"[1]": {"system": "T. b. rhodesiense KETRI 2537", "conditions": "cited from earlier work"}, "[2]": {"set-up": "method as in earlier work", "conditions": "cited from earlier work"}, "[3]": {"experiment": "Plasma pharmacokinetics in infected vervet monkeys (HPLC-MS/MS)", "assay_type": "in vivo, vervet monkey", "conditions": "for geometric mean plasma concentration (range) of prodrug DB868: within 1 h post-LDD", "source_text": "(§1) Parasitaemia post-infection was monitored daily, using ear-prick capillary blood, through the completion of DB868 and DB829 treatment. Following the last drug dose (LDD), blood and CSF samples were examined for trypanosomes at 1, 4, 7, and 14 days to determine the end of treatment (EoT) response; monkeys which were positive for trypanosomes in either blood or CSF at the end of this 14-day period were classified as treatment failures/not cured while those that were free of trypanosomes were classified as provisionally cured. After the 14-day EoT evaluations, parasitaemia examinations were continued twice weekly to ≥ 300 days post-LDD as described previously. Additionally, physical examinations and haematological assessments were carried out once weekly up to 28 days post-LDD, once every two weeks between 28 and 100 days post-LDD, and monthly thereafter until the end of the study as described previously. At 300 days post-LDD, monkeys were considered cured if they remained normal clinically and parasite-free in the blood and CSF. Pharmacokinetic outcomes were monitored for a minimum of 60 days post-LDD as described previously. To facilitate the collection of blood and CSF for these assessments, the monkeys were anaesthetised with an IM injection of ketamine HCl (10–15 mg/kg) and diazepam (0.5 mg/kg). Monkeys that relapsed, characterized by trypanosome recrudescence in the blood or CSF, were rescue-treated with melarsoprol. Melarsoprol (Mel B), supplied by the World Health Organization as a 3.6% (w/v) solution in propylene glycol, was administered intravenously at 3.6 mg/kg/day for 4 consecutive days.\nPlasma samples were processed for quantification of DB868 and DB829 by high performance liquid chromatography-tandem mass spectrometry (HPLC-MS/MS) as described previously. CSF samples were processed in a manner similar to that of plasma samples.\nClinical and haematological data were analysed using Statview for Windows Version 5.0.1 (1995–1998; SAS Institute Inc., Cary, NC, USA). Repeated measures ANOVA, with Fisher’s PLSD post hoc test, was used to test the effect of trypanosome infection on haematologic parameters in comparison with respective baseline values (α = 0.05). In addition, the effects of IM DB829 and oral DB868 on these haematologic parameters in monkeys with confirmed second stage HAT were tested. Pharmacokinetic outcomes were recovered using traditional non-compartmental methods using Phoenix WinNonlin (version 6.2; Pharsight, Mountain View, CA, USA)."}, "[4]": {"experiment": "Tolerability of dose regimens in infected vervet monkeys", "assay_type": "in vivo, vervet monkey", "conditions": "all IM DB829 and oral DB868 dose regimens", "source_text": "as §1, with “Monkeys that relapsed, characterized by trypanosome recrudescence in the blood or CSF, were rescue-treated with melarsoprol. Melarsoprol (Mel B), supplied by the World Health Organization as a 3.6% (w/v) solution in propylene glycol, was administered intravenously at 3.6 mg/kg/day for 4 consecutive days.” left out"}, "[5]": {"system": "T. b. rhodesiense KETRI 2537", "experiment": "Efficacy in KETRI vervet monkey model of second stage HAT", "assay_type": "in vivo", "source_text": "The current study used the KETRI vervet monkey model of HAT, a model developed over 30 years ago through the experimental infection of vervet monkeys with T. b. rhodesiense. […] Trypanosomes were identified in peripheral blood first and cerebrospinal fluid (CSF) second, allowing the disease to be classified into an early (haemo-lymphatic) and a late (central nervous system [CNS]) stage, similar to the human disease. […] Monkey trypanosomal infections have been determined to be invariably fatal without therapeutic intervention, a characteristic also widely accepted as true for human sleeping sickness.\nParasitaemia and CSF parasitosis were monitored using established techniques for blood trypanosomes and CSF trypanosomes, respectively.\nDue to a regulated freeze on acquisitions of new non-human primates, only six monkeys were available for the IM DB829 study. These animals were divided into three treatment groups, each consisting of one male and one female, to compare dose-responsiveness between consecutive- and alternate-day dosing. Monkeys were treated with 2.5 or 5 mg/kg/day for 5 consecutive days or with 5 mg/kg/day on alternating days for a total of 5 doses (Table 1).\nTwelve additional monkeys were available for the oral DB868 efficacy study. These animals were, before infection, divided into three groups, each consisting of two males and two females. DB868 was administered orally to each group at 3, 10 or 20 mg/kg/day for 10 consecutive days (Table 2).\nParasitaemia post-infection was monitored daily, using ear-prick capillary blood, through the completion of DB868 and DB829 treatment. […] At 300 days post-LDD, monkeys were considered cured if they remained normal clinically and parasite-free in the blood and CSF. Pharmacokinetic outcomes were monitored for a minimum of 60 days post-LDD as described previously. […] Monkeys that relapsed, characterized by trypanosome recrudescence in the blood or CSF, were rescue-treated with melarsoprol."}, "T. b. brucei GVR35": {"system": "T. b. brucei GVR35", "set-up": "method as in PMID 19620327", "conditions": "cited from earlier work"}, "T. b. rhodesiense": {"system": "T. b. rhodesiense", "conditions": "oral prodrug; cited from earlier work"}, "[6]": {"system": "human intestinal cell line (Caco-2)", "set-up": "method as in PMID 12458675, PMID 15294005", "conditions": "cited from earlier work"}, "African trypanosomes": {"system": "African trypanosomes", "set-up": "method as in PMID 18722336, PMID 19620327", "conditions": "oral administration; cited from earlier work"}, "[7]": {"conditions": "all oral DB868 regimens combined"}, "[8]": {"conditions": "oral 10 mg/kg × 10 days, monkeys 688M, 690F, 695M, 697F, 10 mg/kg"}, "[9]": {"conditions": "oral 20 mg/kg × 10 days, monkeys 573F, 679F, 689M, 696M, 20 mg/kg"}},
  "note": "Several values for one entry are separate records, joined by “and”; a condition that tells them apart may be missing. Equal entries are not always repeated. Entries after “also recorded” stand apart in the source; their conditions may differ. Where two headings read alike, the source gives them in different places.",
  "data": [
    {"smiles": "CONC(=N)c1ccc(-c2ccc(-c3ccc(C(=N)NOC)cn3)o2)nc1", "note": "[DB868, 2,5-bis[5-(N-methoxyamidino)-2-pyridyl]furan]", "values": [
      {"measurement": "efficacy against first stage HAT in monkeys", "setting": "[1]; oral", "result": "highly active; also recorded: fully curative"},
      {"measurement": "tolerability in monkeys, first stage HAT study", "setting": "[1]; oral", "result": "well-tolerated"},
      {"measurement": "tolerability in rats", "setting": "[2]", "result": "better tolerated than pafuramidine"},
      {"measurement": "decline of prodrug DB868 plasma concentrations", "setting": "[3]; oral DB868, all monkeys, post-LDD", "result": "undetectable after 8 h"},
      {"measurement": "geometric mean plasma concentration (range) of prodrug DB868", "setting": "[3]; oral DB868 3 mg/kg/day", "result": "120 (100–150) nmol/L"},
      {"measurement": "geometric mean plasma concentration (range) of prodrug DB868", "setting": "[3]; oral DB868 10 mg/kg/day", "result": "750 (420–1500) nmol/L"},
      {"measurement": "geometric mean plasma concentration (range) of prodrug DB868", "setting": "[3]; oral DB868 20 mg/kg/day", "result": "810 (370–1300) nmol/L"},
      {"measurement": "tolerability of dose regimens", "setting": "[4]", "result": "well tolerated"},
      {"measurement": "Final efficacy assessment at 300 days post-LDD of DB868, Overall Results (combined cure rate)", "setting": "[5]; [7]", "result": "2/10"},
      {"measurement": "Provisional efficacy at 100 days post-LDD of DB868, Overall Results", "setting": "[5]; [7]", "result": "4/10"},
      {"measurement": "Provisional efficacy at EoT, Overall Results", "setting": "[5]; [7]", "result": "8/10"},
      {"measurement": "Time to relapse", "setting": "[5]; oral 3 mg/kg × 10 days, 28–37 DPI, monkey 687M", "result": 14, "unit": "days post-LDD"},
      {"measurement": "Cured/treated", "setting": "[5]; oral 3 mg/kg × 10 days, 3 mg/kg", "result": "did not cure any monkey and did not achieve cure in any monkey and 0/2"},
      {"measurement": "Provisional efficacy at EoT", "setting": "[5]; oral 3 mg/kg × 10 days, monkeys 670F, 687M", "result": "Not cured"},
      {"measurement": "drug dose after which brief period of aparasitaemia started", "setting": "[5]; oral 3 mg/kg/day × 10 days, 34 DPI", "result": 7, "unit": "drug dose"},
      {"measurement": "Cured/treated", "setting": "[5]; oral 10 mg/kg × 10 days", "result": "1/4"},
      {"measurement": "Time to initial clearance of trypanosomes from body fluids (blood and CSF)", "setting": "[5]; oral 10 mg/kg × 10 days, 28–37 DPI", "result": 1, "unit": "days post-LDD"},
      {"measurement": "Time to relapse", "setting": "[5]; oral 10 mg/kg × 10 days, 28–37 DPI, individual monkeys, 10 mg/kg", "result": "56 days post-LDD and 28 days post-LDD"},
      {"measurement": "Provisional efficacy at EoT", "setting": "[5]; oral 10 mg/kg × 10 days, monkeys 688M, 690F, 695M, 697F", "result": "Cured"},
      {"measurement": "Final efficacy assessment at 300 days post-LDD of DB868", "setting": "[5]; [8]", "result": "R and Cured"},
      {"measurement": "Provisional efficacy at 100 days post-LDD of DB868", "setting": "[5]; [8]", "result": "R and Cured"},
      {"measurement": "median (range) time to relapse", "setting": "[5]; oral 10 mg/kg/day × 10 days", "result": "28 (28–56) days post-LDD"},
      {"measurement": "monkeys relapsed", "setting": "[5]; oral 10 mg/kg/day × 10 days", "result": "3/4"},
      {"measurement": "day of dosing by which monkeys became blood parasite negative", "setting": "[5]; oral 10 mg/kg/day × 10 days, 34 DPI", "result": "≤ 7 day of dosing"},
      {"measurement": "Cured/treated", "setting": "[5]; oral 20 mg/kg × 10 days", "result": "1/4"},
      {"measurement": "Time to relapse", "setting": "[5]; oral 20 mg/kg × 10 days, 28–37 DPI, individual monkeys, 20 mg/kg", "result": "161 days post-LDD and 133 days post-LDD and 77 days post-LDD"},
      {"measurement": "Provisional efficacy at EoT", "setting": "[5]; oral 20 mg/kg × 10 days, monkeys 573F, 679F, 689M, 696M", "result": "Cured"},
      {"measurement": "Final efficacy assessment at 300 days post-LDD of DB868", "setting": "[5]; [9]", "result": "R and Cured"},
      {"measurement": "Provisional efficacy at 100 days post-LDD of DB868", "setting": "[5]; [9]", "result": "R and Cured"},
      {"measurement": "monkeys relapsed", "setting": "[5]; oral 20 mg/kg/day × 10 days", "result": "3/4"},
      {"measurement": "median (range) time to relapse", "setting": "[5]; oral 20 mg/kg/day × 10 days, 20 mg/kg/day", "result": "133 (77–161) days post-LDD and 133 days post-LDD"},
      {"measurement": "day of treatment by which monkeys became aparasitaemic (blood)", "setting": "[5]; oral 20 mg/kg/day × 10 days, 34 DPI", "result": "≤ 7 day of treatment"},
      {"measurement": "efficacy in the murine model of second stage HAT", "setting": "T. b. brucei GVR35", "result": "fully curative"}
    ]},
    {"smiles": "CONC(=N)c1ccc(-c2ccc(-c3ccc(C(=N)NOC)cc3)o2)cc1", "note": "[pafuramidine, 2,5-bis (4-amidinophenyl)-furan-bis-O-methlylamidoxime]", "values": [
      {"measurement": "efficacy against first stage HAT in monkeys", "setting": "[1]; oral administration", "result": "fully curative"},
      {"measurement": "cure rate against second stage HAT in non-human primates", "setting": "T. b. rhodesiense", "result": "0/3"},
      {"measurement": "absorptive permeability compared with the active diamidine furamidine (DB75)", "setting": "[6]", "result": "improved absorptive permeability"},
      {"measurement": "efficacy in murine models of first and second stage HAT", "setting": "African trypanosomes", "result": "fully curative"}
    ]},
    {"smiles": "Nc1nc(N)nc(Nc2ccc([As]3SCC(CO)S3)cc2)n1", "note": "(stereo not drawn) [melarsoprol, reference compound]", "values": [
      {"measurement": "rescue treatment of monkeys that relapsed after DB868", "setting": "[5]; melarsoprol intravenously 3.6 mg/kg/day for 4 consecutive days, 3.6 mg/kg/day", "result": "successfully rescue-treated and 5/6"}
    ]},
    {"smiles": "N=C(N)c1ccc(OCCCCCOc2ccc(C(=N)N)cc2)cc1", "note": "[pentamidine, reference compound]", "values": [
      {"measurement": "cure rate when treatment initiation was delayed to 14 days post-infection", "setting": "[1]; IM, monkeys, T. b. rhodesiense KETRI 2537, ref unpublished data, TRC-KARI", "result": "0/3"},
      {"measurement": "cure rate in first stage disease", "setting": "[1]; IM, monkeys", "result": "2/3"}
    ]},
    {"smiles": "CON=C(N)c1ccc(-c2ccc(-c3ccc(C(N)=NOC)cn3)o2)cc1", "note": "[DB844]", "values": [
      {"measurement": "cure rate against second stage HAT in non-human primates", "setting": "T. b. rhodesiense", "result": "3/7"},
      {"measurement": "efficacy in murine models of first and second stage HAT", "setting": "African trypanosomes", "result": "fully curative"}
    ]}
  ]
}
